The results in this text go back to article PMC10223356, “Tetrasubstituted Pyrrole Derivative Mimetics of Protein–Protein Interaction Hot-Spot Residues: A Promising Class of Anticancer Agents Targeting Melanoma Cells” (Molecules, 2023).

The nature of data set [1]: Solubility assay in PBS by UV light scattering (precipitation point). It counts as physicochemical. The following applies: for solubility at 1 min: PBS (phosphate-buffered saline), aqueous buffer, kinetic from dmso stock, PBS solution pH = 7.4, 37 °C, mean ± SEM (n = 3). The protocol:
The solubility of all compounds was evaluated in a PBS solution (phosphate-buffered saline; Sigma-Aldrich, Merck KGaA, Darmstadt, Germany, pH = 7.4) by means of UV spectroscopy.
For each compound, the precipitation point was quantified measuring the increasing of the UV absorption of PBS in the range of 600–800 nm after successive additions of aliquots of a DMSO solution at specific concentration. Because of the absence of bands in the selected UV region, the increase in absorption is due to light scattering caused by the formation of particulate in the PBS. UV absorption data were graphically reported vs. μL of the added DMSO solution (x-axis), and the precipitation point was identified as the intersect point of the bilinear fitted curve. The x coordinate of the intersect point corresponded to the microlitres of DMSO added to PBS (1.4 mL) when the precipitation occurred, from which the concentration of the molecule in PBS at the precipitation point is readily calculated.
The solubility of each molecule in PBS was quantified measuring the UV scattering in the range of 600–800 nm (JASCO UV-530 spectrophotometer, equipped with ETC-505 T temperature controller). DMSO solutions of 1, 9a, 9b, 9c, 9d, 9e, 9f, ±10b, and nutlin-3a were used at a final concentration of 2.6 mM, whereas those of 9g, 9h, and 9i were used at 1.0 mM. A total of 1400 µL of degassed PBS was placed in a quartz cuvette (o.l. 0.5 cm), equilibrated 5 min at 37 °C, and then titrated by 7–10 successive additions of 0.5 µL or 0.3 µL from the DMSO solution. Each titration was performed without removing the cuvette from the UV cell and, after each addition, the solution was equilibrated 1 min a 37 °C under gently stirring before the acquisition of the UV data. For each molecule, the solubility was expressed as the mean ± SEM (n = 3).

The test system of another data set is normal rat L6 myoblast. As to the kind of experiment: Cell survival index (MTT + cell count) bioscreen, L6. To be noted: healthy rat myoblast cell line, 48 h of incubation, mean ± SEM (n = 30), read-out: L6 IC50. In kind it is cell-based. The method, then: (§1) Cell growth inhibition activity of compounds 1, 9a–i, 10a,b, and the positive control nutlin-3a was evaluated following 48 h of incubation with increasing concentrations of the compounds (from 1.5 to 25 µM) in human cancer (A375 and HCT-116) and healthy (L6) cell lines. […] The evaluation of the “cell survival index” show a typical concentration-dependent sigmoid trend, achieving IC50 values in the low micromolar range (Figure S2).
(§2) Human epithelial melanoma A375 cells, human colorectal carcinoma HCT-116 cells, and normal rat L6 myoblast were grown in DMEM (Invitrogen, Paisley, UK) supplemented with 10% fetal bovine serum (FBS, Cambrex, Verviers, Belgium), L-glutamine (2 mM, Sigma, Milan, Italy), penicillin (100 units/mL, Sigma), and streptomycin (100 μg/mL, Sigma) and cultured in a humidified 5% carbon dioxide atmosphere at 37 °C, according to ATCC recommendations. A375 and HCT-116 were used as preclinical human cancer models in vitro, while rat L6 were used as control healthy cells.
(§3) The antiproliferative activity of 1, 9a–i, and 10a,b was investigated through the estimation of a “cell survival index”, arising from the combination of cell viability evaluation with cell counting, as previously reported. The cell survival index is calculated as the arithmetic mean between the percentage values derived from the MTT assay and the automated cell count. Cells were inoculated in 96-microwell culture plates at a density of 10^4 cells/well and allowed to grow for 24 h. The medium was then replaced with fresh medium and cells were treated for an additional 48 h with a range of concentrations (from 1.5 to 25 μM) of 1, 9a–i, and 10a,b. Using the same experimental procedure, cell cultures were also incubated with DMSO as negative controls (vehicle), as well as with cisplatin (cDDP) and nutlin-3a as positive controls for cytotoxic and antiproliferative effects, respectively. Cell viability was evaluated using the MTT assay procedure. Cell number was determined by TC20 automated cell counter (Bio-Rad, Milan, Italy), providing an accurate and reproducible total count of cells and a live/dead ratio in one step by a specific dye (trypan blue) exclusion assay. The calculation of the concentration required to inhibit the net increase in the cell number and viability by 50% (IC50) is based on plots of data (n = 6 for each experiment) and repeated five times (total n = 30). IC50 values were calculated from a dose–response curve by nonlinear regression using a curve-fitting program, GraphPad Prism 5.0, and are expressed as mean values ± SEM (n = 30) of five independent experiments.

Data set [2] relates to human colorectal carcinoma HCT-116 cells. Kind of data set: Cell survival index (MTT + cell count) bioscreen, HCT-116. In kind it is cell-based. To be noted: HCT-116, 48 h, human colon cancer cell line, 48 h of incubation, mean ± SEM (n = 30). The protocol: as §1, §2, §3
For data set [3], the system named is human epithelial melanoma A375 cells. As to the kind of experiment: Cell survival index (MTT + cell count) bioscreen, A375. It counts as cell-based. To be noted: for IC50: A-375, human melanoma cell line, 48 h of incubation, cell survival index, mean ± SEM (n = 30); for SI (selectivity index): SI = IC50 L6/IC50 A375. The method, then: as §1, §2, §3
Setting [4] is: DMSO solution 2.6 mM added to 1400 µL PBS.
The mark [5] stands for this setting: DMSO solution 1.0 mM added to 1400 µL PBS, Abs 640 nm.

≈ marks a conversion by molar mass, not a printed value.

By solubility is commonly meant how much of the substance goes into solution per volume. Higher therefore signals much dissolved substance. For orientation: IC50 means the concentration needed to halve the response being measured.

As to `Cc1ccc(Cn2c(C(=O)NCc3cccc(Cl)c3)cc(C(O)c3ccccc3)c2C)cc1` (racemic) [(±)10b, (±)N-(3-chlorobenzyl)-4-(hydroxy(phenyl)methyl)-5-methyl-1-(4-methylbenzyl)-1H-pyrrole-2-carboxamide], in data set [1] (setting [4]), the “Volume of DMSO solution added to PBS at the precipitation point” value (shortened to “Volume of DMSO solution added to PBS”) is given as 3,6 µL. The solubility at 1 min in data set [1] was 6.7 ± 0.6 µM (≈ 3.08 µg/mL). The CC50 in the data set on normal rat L6 myoblast was 54 ± 6 µM. Also, the IC50 in data set [2] was determined as 25 ± 5 µM; in data set [3], 15 ± 5 µM. The “SI (selectivity index)” value in data set [3] stood at 3.6.
With `Cc1c(C(=O)c2ccccc2)cc(C(=O)NCc2cccc(Cl)c2)n1Cc1ccc(Cl)cc1` [compound 9a, 4-Benzoyl-N-(3-chlorobenzyl)-1-(4-chlorobenzyl)-5-methyl-1H-pyrrole-2-carboxamide], the “Volume of DMSO solution added to PBS” value in data set [1] (setting [4]) is reported as 2,14 µL. In data set [1], this compound returned a solubility at 1 min of 3.9 ± 0.1 µM (≈ 1.86 µg/mL). Moreover, the CC50 in the data set with normal rat L6 myoblast was determined as 48 ± 5 µM. Further, the IC50 in data set [2] was found to be 36.4 ± 8 µM. Also, in data set [3], the IC50 stood at 18 ± 4 µM and the “SI (selectivity index)” value turned out to be 2.7.
Consider `COc1ccc(Cn2c(C(=O)NCc3cccc(Cl)c3)cc(C(=O)c3ccccc3)c2C)cc1` [compound 9b, 4-Benzoyl-N-(3-chlorobenzyl)-1-(4-methoxybenzyl)-5-methyl-1H-pyrrole-2-carboxamide], for which, in data set [1] (setting [4]), the “Volume of DMSO solution added to PBS” value is reported as 1,7 µL. Further, the solubility at 1 min in data set [1] worked out at 3.1 ± 0.2 µM (≈ 1.47 µg/mL). Further, the CC50 with normal rat L6 myoblast was determined as 40 ± 5 µM. For the same compound, the IC50 in data set [2] worked out at 46 ± 18 µM. In data set [3], the IC50 amounted to 24 ± 14 µM and the “SI (selectivity index)” value came out at 1.7.
For `Cc1ccc(Cn2c(C(=O)NCc3ccc(Cl)cc3)cc(C(=O)c3ccccc3)c2C)cc1` [compound 9d, 4-Benzoyl-N-(4-chlorobenzyl)-5-methyl-1-(4-methylbenzyl)-1H-pyrrole-2-carboxamide], the “Volume of DMSO solution added to PBS” value in data set [1] (setting [4]) is recorded as 1,67 µL. The compound also came in with a solubility at 1 min in data set [1] of 3.1 ± 0.2 µM (≈ 1.42 µg/mL). Besides, the CC50 in the data set with normal rat L6 myoblast came to 25 ± 6 µM. The IC50 in data set [2] is 35.4 ± 6 µM. In data set [3], the 50% inhibitory concentration (IC50) stood at 15 ± 5 µM and the “SI (selectivity index)” value stood at 1.7.
Turning to `Cc1c(C(=O)c2ccccc2)cc(C(=O)NCc2ccc(Cl)cc2)n1Cc1ccc(Cl)cc1` [compound 9e, 4-Benzoyl-N,1-bis(4-chlorobenzyl)-5-methyl-1H-pyrrole-2-carboxamide], the “Volume of DMSO solution added to PBS” value in data set [1] (setting [4]) is reported as 1,93 µL. The solubility at 1 min in data set [1] worked out at 3.5 ± 0.3 µM (≈ 1.67 µg/mL). In the data set on normal rat L6 myoblast, the CC50 was 38 ± 2 µM. In addition, in data set [2], the IC50 came to 34.6 ± 6 µM. For the same compound, in data set [3], the IC50 worked out at 23 ± 6 µM and the “SI (selectivity index)” value came out at 1.6.
As to `Cc1c(C(=O)c2ccccc2)cc(C(=O)NCc2cccc(C(F)(F)F)c2)n1Cc1ccccc1` [compound 9f, 4-Benzoyl-1-benzyl-5-methyl-N-(3-(trifluoromethyl)-benzyl)-1H-pyrrole-2-carboxamide], in data set [1] (setting [4]), the “Volume of DMSO solution added to PBS” value is given as 1,41 µL. Moreover, the solubility at 1 min in data set [1] was determined as 2.6 ± 0.1 µM (≈ 1.24 µg/mL). Moreover, in the data set on normal rat L6 myoblast, the CC50 came out at 35 ± 7 µM. The IC50 in data set [2] was found to be 28.4 ± 7 µM. Also, in data set [3], the IC50 was 27 ± 8 µM and the “SI (selectivity index)” value is given as 1.3.
Consider `CC(=O)c1cc(C(=O)NCc2cccc(Br)c2)n(Cc2ccc(C)cc2)c1-c1ccccc1` [compound 9g, 4-acetyl-N-(3-bromobenzyl)-1-(4-methylbenzyl)-5-phenyl-1H-pyrrole-2-carboxamide], for which the “Volume of DMSO solution added to PBS” value in data set [1] (setting [5]) is given as 2,1 µL. In data set [1], this compound registered a solubility at 1 min of 1.5 ± 0.2 µM (≈ 0.752 µg/mL). Further, the CC50 with normal rat L6 myoblast came out at 71 ± 5 µM. The IC50 in data set [2] amounted to 34 ± 6 µM. In addition, in data set [3], the IC50 is 18 ± 5 µM and the “SI (selectivity index)” value came to 3.9.
As to `Cc1ccc(Cn2c(C(=O)NCc3cccc(Cl)c3)cc(C(=O)c3ccc(C)cc3)c2C)cc1` [compound 9h, N-(3-chlorobenzyl)-5-methyl-4-(4-methylbenzoyl)-1-(4-methylbenzyl)-1H-pyrrole-2-carboxamide], the “Volume of DMSO solution added to PBS” value in data set [1] (setting [5]) is 0.84 µL. In data set [1], this compound came in with a solubility at 1 min of less than 1 µM. Besides, the CC50 in the data set on normal rat L6 myoblast stood at 42 ± 7 µM. Besides, in data set [2], the IC50 worked out at 56.3 ± 15 µM. Also, in data set [3], the IC50 was found to be 24 ± 6 µM and the “SI (selectivity index)” value is listed as 1.7.
In the case of `COc1ccc(C(=O)c2cc(C(=O)NCc3cccc(Cl)c3)n(Cc3ccc(C)cc3)c2C)cc1` [compound 9i, N-(3-chlorobenzyl)-4-(4-methoxybenzoyl)-5-methyl-1-(4-methylbenzyl)-1H-pyrrole-2-carboxamide], the “Volume of DMSO solution added to PBS” value in data set [1] (setting [5]) was 1,0 µL. In data set [1], this compound came in with a solubility at 1 min of less than 1 µM. Moreover, the CC50 in the data set on normal rat L6 myoblast stood at 66 ± 5 µM. In addition, in data set [2], the IC50 is greater than 100 µM. In data set [3], the IC50 stood at 16 ± 6 µM and the “SI (selectivity index)” value was 4.2.
For `COc1ccc(C2=N[C@H](c3ccc(Cl)cc3)[C@H](c3ccc(Cl)cc3)N2C(=O)N2CCNC(=O)C2)c(OC(C)C)c1` [nutlin-3a, reference compound], the solubility at 1 min in data set [1] came to 2.4 ± 0.2 µM (≈ 1.4 µg/mL). Besides, the CC50 in the data set on normal rat L6 myoblast was 18 ± 4 µM. The IC50 in data set [2] turned out to be 12.5 ± 5 µM; in data set [3], 15 ± 3 µM. In addition, the “SI (selectivity index)” value in data set [3] was determined as 1.2.
